Tests used:
[1] = method code SF-AS, from DOI: 10.1002/jps.2600790712, PMID: 2398468
[2] = method code SF, from DOI: 10.1002/jps.2600790712, PMID: 2398468

SMILES | logP [1] | logP [2]
C[C@H](CCCNCc1ccccc1Cl)[C@H]1CC[C@H]2[C@@H]3CC[C@@H]4C[C@H](O)CC[C@]4(C)[C@H]3CC[C@]12C | 5.05 | –
C[C@H](CCCNCc1ccccc1)[C@H]1CC[C@H]2[C@@H]3CC[C@@H]4C[C@H](O)CC[C@]4(C)[C@H]3CC[C@]12C | 4.9 | –
C[C@H](CCCNCc1ccc(Cl)cc1)[C@H]1CC[C@H]2[C@@H]3CC[C@@H]4C[C@H](O)CC[C@]4(C)[C@H]3CC[C@]12C | 5 | –
C[C@H](CCCN)[C@H]1CC[C@H]2[C@@H]3[C@@H](O)C[C@@H]4C[C@H](O)CC[C@]4(C)[C@H]3CC[C@]12C | 4 | –
C[C@H](CCCNCc1ccccc1)[C@H]1CC[C@H]2[C@@H]3C[C@H](O)[C@@H]4C[C@H](O)CC[C@]4(C)[C@H]3CC[C@]12C | – | 4.15
C[C@H](CCC(=O)NCc1ccccc1)[C@H]1CC[C@H]2[C@@H]3[C@H](O)C[C@@H]4C[C@H](O)CC[C@]4(C)[C@H]3C[C@H](O)[C@]12C | 3.54 | –

Other lines, results leading:

logP [1] | logP [2] | SMILES
4.8 | – | C[C@H](CCCNCc1ccccc1)[C@H]1CC[C@H]2[C@@H]3CC[C@@H]4C[C@H](O)CC[C@]4(C)[C@H]3C[C@H](O)[C@]12C
4.95 | – | C[C@H](CCCNCc1cccc(Cl)c1)[C@H]1CC[C@H]2[C@@H]3CC[C@@H]4C[C@H](O)CC[C@]4(C)[C@H]3CC[C@]12C
4.2 | – | C[C@H](CCCNCc1ccccc1)[C@H]1CC[C@H]2[C@@H]3[C@H](O)C[C@@H]4C[C@H](O)CC[C@]4(C)[C@H]3CC[C@]12C
3.82 | – | C[C@H](CCCNCc1ccccc1)[C@H]1CC[C@H]2[C@@H]3[C@H](O)C[C@@H]4C[C@H](O)CC[C@]4(C)[C@H]3C[C@H](O)[C@]12C

Reference: the SangsterLogP compilation
